The nature of data set [1]: Tolerability study of intravitreal implants (IOP, IR fundus imaging, histopathology). It counts as in vivo. As to the method: Tolerability study. The tolerability study was conducted at Absorption Systems California (San Diego, CA, USA) under the same animal care and ethics guidelines and approval systems as indicated above in the Pharmacodynamics section. […] Animals were anesthetized with intramuscular ketamine hydrochloride (30–32 mg/kg) and xylazine (5–10 mg/kg), with glycopyrrolate (0.01–0.02 mg/kg, intramuscular) administered concurrently. Eyes were prepped with 1–2 drops of topical proparacaine hydrochloride (0.5%). Prior to implant or sham treatment, eyes received one drop of 10% phenylephrine and 1% tropicamide. 5% betadine solution was used to clean the eye and surrounding area. Group 1 underwent a sham injection procedure, while Group 2 and Group 3 were administered 2× and 3× 30 G × 6 mm Dex-TEG-Dex implants via intravitreal injection, respectively. […] IOP measurements were performed on both eyes at baseline and designated timepoints up to 52 weeks thereafter using a pneumotonometer. Eyes received 1–2 drops of topical proparacaine hydrochloride (0.5%) prior to IOP measurements, and measurements were taken at approximately the same time of day (±2 h). Wide angle infrared (IR) imaging was performed at baseline and at designated timepoints using a Heidelberg Spectralis® imaging platform. Prior to imaging, eyes were dilated with 1 drop each of 10% phenylephrine and 1% tropicamide. […] Animals were euthanized via pentobarbital overdose (150 mg/kg, intravenous).
Histopathology. […] Eyes were then transferred to 70% ethanol. Eyes were embedded in paraffin and sectioned using a microtome. Five sections were generated from each eye and stained with hematoxylin and eosin (H&E). All stained sections were microscopically evaluated by an ACVP veterinary pathologist.

Data set [2] is described as follows: Dissolution of intravitreal implants in the rabbit eye (IR imaging of implant diameter, model fit). Format: in vivo. Particulars: for local surface dissolution rate constant / Implant Diameter (%): intravitreal; for local surface dissolution rate constant / Diameter of the drug delivery device / Diameter of drug delivery device: rabbit eye; for Implant Diameter (%): Fig 8b, 30 G × 6 mm implant, rabbit; for Diameter of the drug delivery device: script for Supp Fig 11a (30 G implant); for Diameter of drug delivery device: script for Supp Fig 11b, 32G × 6mm. As to the method:
Sample preparation. All implants were formed by melt extrusion of Dex-TEG-Dex, followed by cutting of implants to desired length. Samples were loaded into appropriate sized needles (27 G for 27 G implant, 30 G for 30 G, and 32 G implants), packaged, and sterilized by ethylene oxide gas.
IR imaging. Wide-angle infrared (IR) imaging was performed at baseline, and monthly thereafter for implant imaging and eye health assessment. The imaging was performed using a Heidelberg Spectralis® imaging platform and IR images were analyzed using image analysis software (Image J v.1.8.0) to measure the diameter change of the implants. Three diameter measurements per image and a minimum of two images per implant were used to determine the diameter of the implant at each time point.
Mathematical modeling of drug release. Modeling of the Dex-TEG-Dex implants in the rabbit eye was performed using a compartmental model of drug release using MathWorks MATLAB R2020b. In this model, the drug delivery device is formed of solid drug dimer which undergoes surface erosion to release dimer into an intermediate domain. In the intermediate domain, dimer undergoes degradation to free drug and mono (linker-drug), which subsequently degrades to free linker and free drug. These components undergo transport to the target domain and are then cleared.
This model employs several simplifying assumptions. (1) The mechanism of surface dissolution is local (the same for each part of the surface independent of its location on the surface of the implant), in a manner dependent on the properties of the implant’s physiological location (e.g., dimer saturation). (2) Rate constants of processes are time independent, and the dissolution rates only depend on the corresponding changes in the shape of the delivery devices and properties of their environment. (3) Dimer degradation in the domain of interest occurs on a comparatively fast time scale such that the saturation concentration of dimer is not reached.
A differential equation for the radius, R(t), of a cylindrical drug delivery device described by the compartmental model and derived using Noyes–Whitney equation[74],[75] can be written as (1):1 dR/dt=−DμY/ρh⋅y^*=−b, where D is a diffusion coefficient, µY is the molecular mass of the dimer, ρ is the density of the drug delivery device material, h is the thickness of the concentration gradient layer near the surface, y* is the saturation concentration of the dimer and b is the local surface dissolution rate.
The initial radius, R, of the cylindrical device is known: R0=R0 . Integrating Eq. (1) with this initial condition, gives Eq. (2):2 Rt=R0−b⋅t
Equation (2) was fit to available data (time-dependent measurements of implant diameter) to estimate the local surface dissolution rate constant b for the 30 G × 6 mm and 32 G × 6 mm Dex-TEG-Dex intravitreal implants.

A short description of data set [3]: Shelf-life stability study (polarized light microscopy). Format: physicochemical. Particulars: extruded amorphous implants. The procedure:
Extruded Dex-TEG-Dex implants were assessed for shelf-life stability. Melt extruded Dex-TEG-Dex materials were packaged in the lumen of 30 G needles (BD) and stored in an anhydrous pouch containing desiccant. Samples were aged at 25 °C, 40 °C, and 70 °C for up to 4 months, corresponding to real-time aging of 126 days (25 °C, 4 months), 356 days (40 °C, 4 months), and 2851 days (70 °C, 4 months). At specified time points, samples were removed from their packaging and assessed by polarized light microscopy as outlined below.
Samples were placed on glass slides, cross-sectioned as needed and imaged with a polarizing light microscope (SM-LUX-POL, Leitz) equipped with a Leica EC4 digital camera (Leica) using LAS EZ v.3.2.0 software (Leica). Additionally, a λ-plate compensator was used to assist in evaluation of features with weak birefringence.

A short description of data set [4]: Maximum soluble concentration in culture medium (HPLC). Format: physicochemical. Particulars: plasma or biological fluid, kinetic from ethanol stock, fibroblast growth medium, 1% ethanol, sterile filtered. As to the method: Human dermal fibroblasts were chosen for general cytotoxicity assessment as they are commonly employed in standard cytotoxicity testing outlined in ISO10993 guidelines. […] The resulting solution was sterile filtered (Pall) to remove any non-soluble components and the concentration of Dex-TEG-Dex was confirmed by HPLC (6.7 µg/ml). The […] control was regular culture medium with 1% ethanol, while the negative control was culture medium containing 5% DMSO. Following 24 h exposure to the different test groups, a WST-1 assay was performed. Briefly, WST-1 reagent (Roche) was mixed with growth medium at a 1:10 dilution, added to test groups, and incubated at 37 °C and 5% CO2 for 1 h. Supernatant was transferred to a new well and absorbance was measured at 450 nm. After 24 h exposure to test groups, samples were also visualized following Diff-Quik staining following the manufacturer’s recommended protocol (Siemens). Samples were imaged with a Leica DMIL microscope equipped with a Canon PowerShot S70 camera with ZoomBrowser Ex 5.0 software (Canon, version 5.0.0.142).

What is called solubility is the dissolved amount per volume that the medium holds. Higher therefore signals a readily soluble substance.

Structures are written as SMILES. ≈ marks a conversion by molar mass, not a printed value. Where “and” joins values, the source holds several entries; their conditions need not be identical. Equal values may be shown once.

On to `C[C@@H]1C[C@H]2[C@@H]3CCC4=CC(=O)C=C[C@]4(C)[C@@]3(F)[C@@H](O)C[C@]2(C)[C@@]1(O)C(=O)COC(=O)OCCOCCOCCOC(=O)OCC(=O)[C@@]1(O)[C@H](C)C[C@H]2[C@@H]3CCC4=CC(=O)C=C[C@]4(C)[C@@]3(F)[C@@H](O)C[C@@]21C` [Dex-TEG-Dex], for which the IR fundus images entry in data set [1] (two and three implant eyes, baseline and 3, 6, 9, 12 months) was “unremarkable”. Besides, in data set [1] (two or three 30 G × 6 mm implants intravitreally, 12 months), the tolerability entry is recorded as “well tolerated”. Moreover, in data set [1] (two or three 30 G × 6 mm implants, H&E), the histopathology findings entry is “no microscopic or macroscopic findings”. Also, the “local surface dissolution rate constant” value is recorded as 0.1510 ± 0.0084 µm/day in data set [2] (30 G implant) and 0.1522 ± 0.0140 µm/day in data set [2] (32 G implant). The “Implant Diameter (%)” value in data set [2] (0 days) is 107.57% and 103.15% and 92.13% and 99.18% and 92.81% and 97.05% and 100.23% and 107.88%; in data set [2] (35 days) it was 87.55% and 86.70% and 88.00% and 92.68% and 90.49% and 81.42% and 103.34% and 91.71%; in data set [2] (76 days), 82.56% and 74.07% and 79.78% and 98.06% and 80.37% and 72.75% and 93.94%; in data set [2] (128 days) it was 76.90% and 66.50% and 66.32% and 64.24% and 79.47% and 77.51% and 67.41% and 82.08%; in data set [2] (210 days) it was 55.93% and 41.19% and 50.86% and 49.89% and 69.49% and 44.35% and 52.23% and 60.96%. For the same molecule, the “Diameter of the drug delivery device” value in data set [2] (day 0) was 115.44 µm and 122.56 µm and 115.98 µm and 121.28 µm and 125.25 µm and 134.81 µm and 135.77 µm and 128.91 µm; in data set [2] (day 35) it was 109.97 µm and 115.81 µm and 110.60 µm and 101.74 µm and 129.14 µm and 114.61 µm and 109.41 µm and 108.35 µm; in data set [2] (day 76), 92.56 µm and 99.70 µm and 122.54 µm and 101.44 µm and 90.91 µm and 117.39 µm and 94.21 µm and 112.13 µm; in data set [2] (day 128) it was 81.93 µm and 80.28 µm and 99.31 µm and 96.86 µm and 84.21 µm and 102.57 µm and 96.10 µm and 83.10 µm; in data set [2] (day 185) it was 71.40 µm and 91.90 µm and 62.52 µm and 53.64 µm and 76.76 µm and 78.82 µm and 73.54 µm; in data set [2] (day 210) it was 63.55 µm and 62.35 µm and 86.62 µm and 55.42 µm and 65.27 µm and 76.18 µm and 69.90 µm and 51.48 µm. For the same molecule, the “Diameter of drug delivery device” value is 71.94 µm and 80.30 µm and 83.05 µm and 99.99 µm and 86.79 µm and 101.43 µm and 116.40 µm and 84.89 µm in data set [2] (day 0); 90.18 µm and 66.10 µm and 74.39 µm and 80.46 µm and 84.98 µm and 58.84 µm and 82.44 µm and 84.41 µm in data set [2] (day 35); 77.98 µm and 58.21 µm and 73.62 µm and 66.12 µm and 67.29 µm and 54.07 µm and 65.40 µm and 64.89 µm in data set [2] (day 76); 43.88 µm and 50.55 µm and 44.52 µm and 60.85 µm and 49.60 µm and 50.03 µm and 42.29 µm and 71.40 µm in data set [2] (day 128). In addition, in data set [3], the “crystallinity after shelf-life storage” value is given as “no evidence of crystallinity”. The same molecule gave a solubility in data set [4] of 6.7 µg/mL (≈ 6.79 µM).

These data come from article PMC8129133, “Polymer-free corticosteroid dimer implants for controlled and sustained drug delivery” (Nature Communications, 2021).
